Experimental data from ChEMBL document CHEMBL3865816, “Design, synthesis and biological evaluation of novel azaspiro analogs of linezolid as antibacterial and antitubercular agents” (Eur J Med Chem, 2016).

What was measured:
Format in all cases: functional
Bacillus subtilis [1] = experiment: Antibacterial activity against Bacillus subtilis NCIM 2010 at 30 ug/ml measured after 12 hrs by spectrophotometric method; conditions: NCIM 2010, 12 h
Bacillus subtilis [2] = experiment: Antibacterial activity against Bacillus subtilis NCIM 2010 measured after 12 hrs by spectrophotometric method; conditions: NCIM 2010, 12 h
Pseudomonas aeruginosa [3] = experiment: Antibacterial activity against Pseudomonas aeruginosa NCIM 2036 at 10 ug/ml measured after 8 hrs by spectrophotometric method; conditions: NCIM 2036, 8 h
[4] = tested on: Mycobacterium tuberculosis; experiment: Antitubercular activity against dormant stage Mycobacterium tuberculosis H37Ra measured after 12 days by XTT assay; conditions: 288 h
[5] = tested on: Mycobacterium tuberculosis; experiment: Antitubercular activity against dormant stage Mycobacterium tuberculosis H37Ra at 30 ug/ml measured after 12 days by XTT assay; conditions: 288 h
Escherichia coli [6] = experiment: Antibacterial activity against Escherichia coli NCIM 2688 at 30 ug/ml measured after 8 hrs by spectrophotometric method; conditions: NCIM 2688, 8 h
Staphylococcus aureus [7] = experiment: Antibacterial activity against Staphylococcus aureus NCIM 2079 measured after 12 hrs by spectrophotometric method; conditions: NCIM 2079, 12 h
Pseudomonas aeruginosa [8] = experiment: Antibacterial activity against Pseudomonas aeruginosa NCIM 2036 at 3 ug/ml measured after 8 hrs by spectrophotometric method; conditions: NCIM 2036, 8 h
Escherichia coli [9] = experiment: Antibacterial activity against Escherichia coli NCIM 2688 at 3 ug/ml measured after 8 hrs by spectrophotometric method; conditions: NCIM 2688, 8 h
Bacillus subtilis [10] = experiment: Antibacterial activity against Bacillus subtilis NCIM 2010 at 10 ug/ml measured after 12 hrs by spectrophotometric method; conditions: NCIM 2010, 12 h
Bacillus subtilis [11] = experiment: Antibacterial activity against Bacillus subtilis NCIM 2010 at 3 ug/ml measured after 12 hrs by spectrophotometric method; conditions: NCIM 2010, 12 h
[12] = tested on: Mycobacterium tuberculosis; experiment: Antitubercular activity against dormant stage Mycobacterium tuberculosis H37Ra at 3 ug/ml measured after 12 days by XTT assay; conditions: 288 h
Staphylococcus aureus [13] = experiment: Antibacterial activity against Staphylococcus aureus NCIM 2079 at 30 ug/ml measured after 12 hrs by spectrophotometric method; conditions: NCIM 2079, 12 h
Staphylococcus aureus [14] = experiment: Antibacterial activity against Staphylococcus aureus NCIM 2079 at 3 ug/ml measured after 12 hrs by spectrophotometric method; conditions: NCIM 2079, 12 h
Escherichia coli [15] = experiment: Antibacterial activity against Escherichia coli NCIM 2688 measured after 8 hrs by spectrophotometric method; conditions: NCIM 2688, 8 h
Staphylococcus aureus [16] = experiment: Antibacterial activity against Staphylococcus aureus NCIM 2079 at 10 ug/ml measured after 12 hrs by spectrophotometric method; conditions: NCIM 2079, 12 h
Escherichia coli [17] = experiment: Antibacterial activity against Escherichia coli NCIM 2688 at 10 ug/ml measured after 8 hrs by spectrophotometric method; conditions: NCIM 2688, 8 h
Pseudomonas aeruginosa [18] = experiment: Antibacterial activity against Pseudomonas aeruginosa NCIM 2036 at 30 ug/ml measured after 8 hrs by spectrophotometric method; conditions: NCIM 2036, 8 h
Pseudomonas aeruginosa [19] = experiment: Antibacterial activity against Pseudomonas aeruginosa NCIM 2036 measured after 8 hrs by spectrophotometric method; conditions: NCIM 2036, 8 h
[20] = tested on: Mycobacterium tuberculosis; experiment: Antitubercular activity against dormant stage Mycobacterium tuberculosis H37Ra at 10 ug/ml measured after 12 days by XTT assay; conditions: 288 h

Row | Compound | inhibition at 30 µg/mL (Bacillus subtilis [1]) | IC50 (Bacillus subtilis [2]) | MIC (Bacillus subtilis [2]) | inhibition at 10 µg/mL (Pseudomonas aeruginosa [3]) | IC50 [4] | MIC [4] | inhibition at 30 µg/mL [5] | inhibition at 30 µg/mL (Escherichia coli [6]) | IC50 (Staphylococcus aureus [7]) | MIC (Staphylococcus aureus [7]) | inhibition at 3 µg/mL (Pseudomonas aeruginosa [8]) | inhibition at 3 µg/mL (Escherichia coli [9]) | inhibition at 10 µg/mL (Bacillus subtilis [10]) | inhibition at 3 µg/mL (Bacillus subtilis [11]) | inhibition at 3 µg/mL [12] | inhibition at 30 µg/mL (Staphylococcus aureus [13]) | inhibition at 3 µg/mL (Staphylococcus aureus [14]) | IC50 (Escherichia coli [15]) | MIC (Escherichia coli [15]) | inhibition at 10 µg/mL (Staphylococcus aureus [16]) | other results
1 | COCC(=O)NC[C@H]1CN(c2ccc(N3CC4(COC4)C3)c(F)c2)C(=O)O1 | 95.2% | > 100 µg/mL | > 100 µg/mL | 37.1% | > 100 µg/mL | > 100 µg/mL | 50.1% | 66.6% | > 100 µg/mL | > 100 µg/mL | 14.4% | 61.5% | 77.7% | 51.2% | -22.9% | 98.8% | 72.3% | > 100 µg/mL | > 100 µg/mL | 92.2% | inhibition at 10 µg/mL (Escherichia coli [17]): 65.4%; inhibition at 30 µg/mL (Pseudomonas aeruginosa [18]): 63.7%; IC50 (Pseudomonas aeruginosa [19]): > 100 µg/mL; MIC (Pseudomonas aeruginosa [19]): > 100 µg/mL; inhibition at 10 µg/mL [20]: -13.7%
2 | O=C1O[C@@H](CNS(=O)(=O)c2cc([N+](=O)[O-])ccc2Cl)CN1c1ccc(N2CC3(COC3)C2)c(F)c1 | 88.4% | > 100 µg/mL | > 100 µg/mL | 38.6% | > 100 µg/mL | > 100 µg/mL | 59.6% | 49.6% | > 100 µg/mL | > 100 µg/mL | -6.17% | 2.37% | 62.1% | 47% | 24.4% | 89.5% | 42% | > 100 µg/mL | > 100 µg/mL | 55% | inhibition at 10 µg/mL (Escherichia coli [17]): 15.8%; inhibition at 30 µg/mL (Pseudomonas aeruginosa [18]): 68.6%; IC50 (Pseudomonas aeruginosa [19]): > 100 µg/mL; MIC (Pseudomonas aeruginosa [19]): > 100 µg/mL; inhibition at 10 µg/mL [20]: 29.2%
3 | O=C1O[C@@H](CNC(=O)C23CC4CC(CC(C4)C2)C3)CN1c1ccc(N2CC3(COC3)C2)c(F)c1 | 69.8% | > 100 µg/mL | > 100 µg/mL | 39.2% | > 100 µg/mL | > 100 µg/mL | 22.1% | 60.1% | > 100 µg/mL | > 100 µg/mL | 49.6% | 36.8% | 62% | 51.3% | 9.46% | 71.1% | 54.9% | > 100 µg/mL | > 100 µg/mL | 55.5% | inhibition at 10 µg/mL (Escherichia coli [17]): 43.3%; inhibition at 30 µg/mL (Pseudomonas aeruginosa [18]): 40.7%; IC50 (Pseudomonas aeruginosa [19]): > 100 µg/mL; MIC (Pseudomonas aeruginosa [19]): > 100 µg/mL; inhibition at 10 µg/mL [20]: 4.41%
4 | O=C1O[C@@H](CNS(=O)(=O)c2cc(Cl)cc(Cl)c2)CN1c1ccc(N2CC3(COC3)C2)c(F)c1 | 66.6% | > 100 µg/mL | > 100 µg/mL | 67.2% | > 100 µg/mL | > 100 µg/mL | 23.2% | 25.4% | > 100 µg/mL | > 100 µg/mL | 42.2% | 36.8% | 56.1% | 51% | 8.02% | 74.2% | 55.1% | > 100 µg/mL | > 100 µg/mL | 50.6% | inhibition at 10 µg/mL (Escherichia coli [17]): 23.5%; inhibition at 30 µg/mL (Pseudomonas aeruginosa [18]): 86.6%; IC50 (Pseudomonas aeruginosa [19]): > 100 µg/mL; MIC (Pseudomonas aeruginosa [19]): > 100 µg/mL; inhibition at 10 µg/mL [20]: -5.84%
